Experimental data reported in PMC11898958, “Application of Biomimetic Chromatography and QSRR Approach for Characterizing Organophosphate Pesticides” (International Journal of Molecular Sciences, 2025).
Read-outs that look alike come from different tables or passages of the source.

Columns and labels:
[1] = Chromatographic lipophilicity by RP-HPLC on C18 column (CHIC18); type: physicochemical
Experimental: (§1) Elution was conducted under the following conditions:
(§2) The injected volume was 10 μL. […] Each sample was analyzed three times.

[2] = Affinity to phospholipids by IAM-HPLC (IAM.PC.DD2 column); type: physicochemical
Experimental: as §1, §2

[3] = target: human serum albumin (Homo sapiens, UniProt P02768)
human serum albumin, sequence (P02768 25-609): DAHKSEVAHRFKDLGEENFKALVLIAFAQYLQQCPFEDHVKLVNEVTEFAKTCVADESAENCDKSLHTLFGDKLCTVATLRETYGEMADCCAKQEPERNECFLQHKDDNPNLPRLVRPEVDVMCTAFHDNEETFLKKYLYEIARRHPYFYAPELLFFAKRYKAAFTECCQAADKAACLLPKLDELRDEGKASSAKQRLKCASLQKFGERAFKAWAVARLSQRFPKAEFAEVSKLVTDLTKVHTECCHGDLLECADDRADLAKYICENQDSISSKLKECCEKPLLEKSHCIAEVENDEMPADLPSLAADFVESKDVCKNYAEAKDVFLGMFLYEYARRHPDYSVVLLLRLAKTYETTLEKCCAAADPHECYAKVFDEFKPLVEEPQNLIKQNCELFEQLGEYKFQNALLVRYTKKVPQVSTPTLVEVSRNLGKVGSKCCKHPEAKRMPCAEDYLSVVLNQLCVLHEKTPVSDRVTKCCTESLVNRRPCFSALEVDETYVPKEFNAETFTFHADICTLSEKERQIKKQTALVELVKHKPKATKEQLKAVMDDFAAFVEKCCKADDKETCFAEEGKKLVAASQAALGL
Experimental: Each column was equipped with an appropriate precolumn. Elution was conducted under the following conditions:

[4] = C18 XTERRA RP18 column, acetonitrile gradient, 50 mM ammonium acetate pH 7.4, 30 °C
[5] = IAM.PC.DD2 column, acetonitrile gradient, 50 mM ammonium acetate pH 7.4, 30 °C
[6] = HSA column, isopropanol gradient, 50 mM ammonium acetate pH 7.4, 30 °C

Compound | CHIC18 (chromatographic hydrophobicity index of RP-HPLC) [1, 4] | CHIIAM (chromatographic hydrophobicity index of IAM-HPLC) [2, 5] | %HSA (binding to HSA) [3, 6] [%] | LogkHSA (chromatographically determined affinity to HSA-HPLC) [3, 6] | other results
CCOP(=S)(OCC)SCn1nnc2ccccc2c1=O [Azinphos-ethyl] | 95.69 | 37.81 | 92.07 | 1.01 | –
COP(=S)(OC)SCn1nnc2ccccc2c1=O [Azinphos-methyl] | 83.47 | 33.18 | 86.70 | 0.78 | –
CCOP(=O)(OCC)OC(=CCl)c1ccc(Cl)cc1Cl [Chlorfenvinphos] | 97.18 | 38.13 | 85.54 | 0.74 | –
CCOP(=S)(OCC)Oc1cc(C)nc(C(C)C)n1 [Diazinon] | 105.98 | 39.34 | 81.33 | 0.62 | CHIC18 (chromatographic hydrophobicity index of RP-HPLC) ([1]; C18 XTERRA RP18 column, acetonitrile gradient, 50 mM ammonium acetate pH 7.4, 30 °C, listed as diazinon): remarkably high lipophilicity
COP(=O)(OC)OC=C(Cl)Cl [Dichlorvos] | 23.17 | 16.56 | 65.86 | 0.27 | CHIC18 (chromatographic hydrophobicity index of RP-HPLC) ([1]; C18 XTERRA RP18 column, acetonitrile gradient, 50 mM ammonium acetate pH 7.4, 30 °C, listed as dichlorvos): low lipophilicity
CCOP(=S)(OCC)SCCSCC [Disulfoton] | 108.97 | 42.34 | 92.86 | 1.06 | CHIC18 (chromatographic hydrophobicity index of RP-HPLC) ([1]; C18 XTERRA RP18 column, acetonitrile gradient, 50 mM ammonium acetate pH 7.4, 30 °C, listed as disulfoton): remarkably high lipophilicity; CHIIAM (chromatographic hydrophobicity index of IAM-HPLC) ([2]; IAM.PC.DD2 column, acetonitrile gradient, 50 mM ammonium acetate pH 7.4, 30 °C, listed as disulfoton): highest CHIIAM values
CCCSP(=O)(OCC)SCCC [Ethoprophos] | – | – | – | – | CHIC18 (chromatographic hydrophobicity index of RP-HPLC) ([1]; pH 7.4): 88.39; CHIIAM (chromatographic hydrophobicity index of IAM-HPLC) ([2]; pH 7.4): 32.41; %HSA (binding to HSA) ([3]; human, pH 7.4): 28.35%; LogkHSA (chromatographically determined affinity to HSA-HPLC) ([3]; human, pH 7.4): −0.41
COP(=S)(OC)Oc1ccc([N+](=O)[O-])c(C)c1 [Fenitrothion] | 93.49 | 38.10 | 91.78 | 1.00 | –
COP(=S)(OC)Oc1ccc(SC)c(C)c1 [Fenthion] | 102.16 | 42.37 | 96.04 | 1.29 | CHIIAM (chromatographic hydrophobicity index of IAM-HPLC) ([2]; IAM.PC.DD2 column, acetonitrile gradient, 50 mM ammonium acetate pH 7.4, 30 °C, listed as fenthion): highest CHIIAM values; %HSA (binding to HSA) ([3]; HSA column, isopropanol gradient, 50 mM ammonium acetate pH 7.4, 30 °C, listed as fenthion): highest protein-binding capacity
CCOC(=O)N(C)C(=O)CSP(=S)(OCC)OCC [Mecarbam] | 97.09 | 35.77 | 74.23 | 0.44 | –
COP(=O)(OC)OC(Br)C(Cl)(Cl)Br (centres unmarked) [Naled] | 31.32 | 29.79 | 43.86 | −0.11 | CHIC18 (chromatographic hydrophobicity index of RP-HPLC) ([1]; C18 XTERRA RP18 column, acetonitrile gradient, 50 mM ammonium acetate pH 7.4, 30 °C, listed as naled): low lipophilicity
CCOP(=O)(OCC)Oc1ccc([N+](=O)[O-])cc1 [Paraoxon-ethyl] | 72.54 | 25.34 | 27.68 | −0.42 | –
COP(=S)(OC)Oc1ccc([N+](=O)[O-])cc1 [Parathion-methyl] | 88.75 | 35.54 | 87.94 | 0.83 | –
CCOP(=S)(OCC)SCSCC [Phorate] | 108.36 | 42.43 | 93.08 | 1.07 | CHIIAM (chromatographic hydrophobicity index of IAM-HPLC) ([2]; IAM.PC.DD2 column, acetonitrile gradient, 50 mM ammonium acetate pH 7.4, 30 °C, listed as phorate): highest CHIIAM values
COP(=S)(OC)SCN1C(=O)c2ccccc2C1=O [Phosmet] | 85.39 | 33.89 | 87.23 | 0.80 | –
CCOP(=S)(OCC)Oc1cnc2ccccc2n1 [Quinalphos] | 101.01 | 39.40 | 91.23 | 0.97 | CHIC18 (chromatographic hydrophobicity index of RP-HPLC) ([1]; C18 XTERRA RP18 column, acetonitrile gradient, 50 mM ammonium acetate pH 7.4, 30 °C, listed as quinalphos): remarkably high lipophilicity
Chlorpyrifos-oxon | 39.17 | 24.96 | – | 0.68 | %HSA (binding to HSA) ([3]; pH 7.4): 83.49%
